Measured values from patent publication US10689362B2, “Quinoxaline compounds as type III receptor tyrosine kinase inhibitors” (Development Center for Biotechnology, priority 2016, dated 2020).

How the values were obtained:
FLT3 kinase = FLT3 kinase (Homo sapiens (Human), UniProt P36888); test: FLT3 kinase assay (radiometric); format: biochemical; conditions: bound
Summary of the method: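 Recombinant FLT3 (5 ng) phosphorylating poly(Glu4:Tyr1) (2 μg) with 10 μM ATP plus [^33P]-ATP in MOPS pH 7.0 buffer, 4% DMSO final, 60 min at 30° C. Reaction stopped with phosphoric acid, filter-captured and scintillation-counted; IC50 derived from dose-response.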

c-KIT kinase = c-KIT kinase (Homo sapiens (Human), UniProt P10721); test: c-KIT kinase assay (radiometric); format: biochemical
Sequence of c-KIT kinase (P10721 26-976): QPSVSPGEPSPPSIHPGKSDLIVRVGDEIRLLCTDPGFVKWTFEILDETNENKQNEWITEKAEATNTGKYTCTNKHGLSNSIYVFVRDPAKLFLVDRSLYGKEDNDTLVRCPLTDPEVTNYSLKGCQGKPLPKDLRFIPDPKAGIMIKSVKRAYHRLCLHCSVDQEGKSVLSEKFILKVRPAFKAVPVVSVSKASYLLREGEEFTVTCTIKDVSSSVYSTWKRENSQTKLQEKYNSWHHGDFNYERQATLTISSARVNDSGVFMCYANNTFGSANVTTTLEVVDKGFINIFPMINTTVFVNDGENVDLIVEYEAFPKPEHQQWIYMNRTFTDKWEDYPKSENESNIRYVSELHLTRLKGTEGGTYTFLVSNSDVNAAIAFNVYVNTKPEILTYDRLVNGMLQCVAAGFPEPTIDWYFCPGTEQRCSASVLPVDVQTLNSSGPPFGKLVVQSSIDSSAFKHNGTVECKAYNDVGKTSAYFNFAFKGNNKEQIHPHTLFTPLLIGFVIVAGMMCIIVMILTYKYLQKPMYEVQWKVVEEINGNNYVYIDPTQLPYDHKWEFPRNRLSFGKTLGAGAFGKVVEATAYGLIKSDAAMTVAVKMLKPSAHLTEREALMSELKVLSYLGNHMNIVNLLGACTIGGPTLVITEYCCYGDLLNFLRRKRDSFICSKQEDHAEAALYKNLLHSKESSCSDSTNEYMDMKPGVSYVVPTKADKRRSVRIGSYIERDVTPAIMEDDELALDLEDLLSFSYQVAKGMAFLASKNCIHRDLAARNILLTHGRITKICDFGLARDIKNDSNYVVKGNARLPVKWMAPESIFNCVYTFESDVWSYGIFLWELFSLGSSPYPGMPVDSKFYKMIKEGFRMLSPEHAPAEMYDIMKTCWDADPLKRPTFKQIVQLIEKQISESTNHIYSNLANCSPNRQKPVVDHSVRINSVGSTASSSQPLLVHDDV
Summary of the method: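 Recombinant c-Kit (20 ng) with 2 μg Poly-(Glu4:Tyr1) in MOPS pH 7.0 buffer with MgCl2/MnCl2, 10 μM ATP plus [^33P]-ATP, 4% DMSO final, 60 min at 30° C. Stopped with phosphoric acid, filter-captured and scintillation counted; IC50 from curve fit.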

PDGFRβ kinase = PDGFRβ kinase (Homo sapiens (Human), UniProt P09619); test: PDGFRβ kinase assay (radiometric); format: biochemical
Sequence of PDGFRβ kinase (P09619 33-1106): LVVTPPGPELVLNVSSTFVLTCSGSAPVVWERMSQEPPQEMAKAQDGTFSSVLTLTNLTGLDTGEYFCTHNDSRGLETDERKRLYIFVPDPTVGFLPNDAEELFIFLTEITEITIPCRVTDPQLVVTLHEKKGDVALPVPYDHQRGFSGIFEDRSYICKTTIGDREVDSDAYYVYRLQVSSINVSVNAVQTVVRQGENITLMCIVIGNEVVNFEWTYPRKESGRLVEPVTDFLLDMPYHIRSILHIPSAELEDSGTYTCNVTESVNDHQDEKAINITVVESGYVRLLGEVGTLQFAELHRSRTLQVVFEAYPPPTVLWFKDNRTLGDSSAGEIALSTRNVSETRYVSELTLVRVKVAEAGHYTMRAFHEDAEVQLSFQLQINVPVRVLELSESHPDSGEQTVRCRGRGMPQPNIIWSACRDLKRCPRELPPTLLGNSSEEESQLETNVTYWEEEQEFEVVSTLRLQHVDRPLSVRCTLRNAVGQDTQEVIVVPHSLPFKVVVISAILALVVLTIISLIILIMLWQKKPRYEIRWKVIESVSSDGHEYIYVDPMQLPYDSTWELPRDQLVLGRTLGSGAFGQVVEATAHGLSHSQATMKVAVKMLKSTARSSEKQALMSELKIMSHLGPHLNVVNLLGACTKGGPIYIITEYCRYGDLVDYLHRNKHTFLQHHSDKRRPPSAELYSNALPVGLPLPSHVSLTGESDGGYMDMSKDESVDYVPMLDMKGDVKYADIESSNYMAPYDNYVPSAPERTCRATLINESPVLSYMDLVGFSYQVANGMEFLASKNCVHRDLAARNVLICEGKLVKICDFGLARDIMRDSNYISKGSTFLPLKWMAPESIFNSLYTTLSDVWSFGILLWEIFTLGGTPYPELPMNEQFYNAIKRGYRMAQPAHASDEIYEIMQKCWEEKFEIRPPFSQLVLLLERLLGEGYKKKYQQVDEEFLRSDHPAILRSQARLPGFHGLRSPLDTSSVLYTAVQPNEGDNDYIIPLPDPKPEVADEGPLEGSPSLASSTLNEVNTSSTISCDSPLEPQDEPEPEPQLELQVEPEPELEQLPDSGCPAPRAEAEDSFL
Summary of the method: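 Radiometric assay: recombinant PDGFRβ with poly(Glu4:Tyr1) in MOPS pH 7.0 buffer containing Mg2+/Mn2+, 10 μM ATP plus [33P]-ATP, and compound at 4% DMSO final. Incubated 60 min at 30° C, stopped with phosphoric acid, filter-captured and scintillation-counted. IC50 from curve fitting.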

[1] = test system: Kasumi-1 human acute myeloid leukemia cell with c-KIT N822K activating mutation; test: Kasumi-1 cell proliferation assay (CellTiter-96); format: cell-based; conditions: Cytotoxicity, Kasumi-1 cells, 72 hours
Summary of the method: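 After 72 h of treatment with a compound dilution series, growth of c-KIT N822K-driven Kasumi-1 cells (64000 per well, plated the day before) was read as 490 nm absorbance. This followed a 4 h incubation with CellTiter96 AQueous One reagent.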

[2] = test system: osteoclast precursors (osteoclast differentiation); test: Osteoclast tartrate-resistant acid phosphatase assay; format: cell-based; conditions: 168 h, at 1 μM treatment, 7 days, RANKL and M-CSF, read-out: inhibition activity against osteoclast differentiation
Experimental: A serial dilution of test compound was dispensed into a 96-well black clear bottom plate. Compound was diluted by the addition of DMEM media supplemented with 10% characterized fetal bovine serum. Diluted compound was transferred to a 96-well black clear bottom plate. Three thousand osteoclast precursors (Lonza, Walkersville, Md.) were added per well in growth medium containing Receptor Activator of Nuclear Factor Kappa-beta ligand (RANKL) and M-CSF. […] At the end of the incubation period, 50 μL of supernatant from each well was transferred to a clear 96-well plate. Tartrate-resistant acid phosphatase activity in the supernatant samples was determined using an acid phosphatase assay kit (Sigma, St. Louis, Mo.). Absorbance was measured at 550 nm using a plate reader. […] The Inhibition activity against osteoclast differentiation for each compound at 1 μM treatment in duplicate was measured.

CSF-1R kinase = CSF-1R kinase (Homo sapiens (Human), UniProt P07333); test: CSF-1R kinase assay (AlphaScreen); format: biochemical; conditions: class symbol
Sequence of CSF-1R kinase (P07333 20-972): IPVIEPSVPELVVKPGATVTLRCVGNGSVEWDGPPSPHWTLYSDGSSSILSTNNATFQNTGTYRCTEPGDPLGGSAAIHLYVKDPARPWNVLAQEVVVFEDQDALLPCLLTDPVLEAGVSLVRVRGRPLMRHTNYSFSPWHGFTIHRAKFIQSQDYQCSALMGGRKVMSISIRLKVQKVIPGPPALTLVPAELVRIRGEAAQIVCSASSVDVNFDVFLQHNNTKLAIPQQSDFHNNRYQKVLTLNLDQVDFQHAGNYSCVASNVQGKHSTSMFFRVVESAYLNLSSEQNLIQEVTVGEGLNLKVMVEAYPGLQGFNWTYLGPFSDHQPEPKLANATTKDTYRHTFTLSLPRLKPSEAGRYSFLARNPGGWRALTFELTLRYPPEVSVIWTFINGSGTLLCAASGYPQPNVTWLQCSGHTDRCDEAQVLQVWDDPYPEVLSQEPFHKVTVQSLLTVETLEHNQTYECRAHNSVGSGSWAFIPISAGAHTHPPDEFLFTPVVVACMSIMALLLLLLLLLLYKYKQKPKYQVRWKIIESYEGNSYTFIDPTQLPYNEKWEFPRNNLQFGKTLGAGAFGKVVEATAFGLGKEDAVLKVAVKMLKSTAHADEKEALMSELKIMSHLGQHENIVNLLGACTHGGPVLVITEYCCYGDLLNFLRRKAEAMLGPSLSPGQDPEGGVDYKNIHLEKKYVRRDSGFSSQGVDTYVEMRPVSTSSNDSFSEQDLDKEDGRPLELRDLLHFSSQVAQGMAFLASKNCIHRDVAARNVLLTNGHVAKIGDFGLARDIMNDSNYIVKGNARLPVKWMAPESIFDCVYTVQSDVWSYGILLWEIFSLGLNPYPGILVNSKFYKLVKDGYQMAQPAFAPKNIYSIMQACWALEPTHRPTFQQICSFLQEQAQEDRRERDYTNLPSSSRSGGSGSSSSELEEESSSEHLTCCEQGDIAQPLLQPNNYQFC
Experimental: Inhibition of CSF-1R kinase activity by a test compound disclosed herein was estimated by AlphaScreen (PerkinElmer). […] Reactions were incubated at 30° C. for 45 min and stopped by adding 5 μL of 50 mM EDTA. Analysis of resulting product using an AlphaScreen kit, and counted with Enspire Alpha (PerkinElmer). […] The IC50 values of quinoxaline compounds of this invention against CSF-1R kinase were determined using the GraphPad Prism 5 software.

[3] = test system: MV4-11 human acute myeloid leukemia cell with FLT3-ITD mutation; test: MV4-11 cell proliferation assay (CellTiter-96); format: cell-based; conditions: Cytotoxicity, MV4-11 cells, 72 hours
Summary of the method: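 Growth inhibition read as absorbance at 490 nm after 4 hours with CellTiter96 AQueous One reagent. Before that, FLT3-ITD-dependent MV4-11 cells (6500 cells/well, overnight at 37° C., 5% CO2) received a rising compound concentration series for 72 hours.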

[4] = test system: CSF-1-dependent M-NFS-60 mouse myeloid leukemia cell; test: M-NFS-60 cell proliferation assay (CellTiter-96); format: cell-based; conditions: Cytotoxicity, M-NFS-60 cells, 72 hours
Summary of the method: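 Growth inhibition was measured as absorbance at 490 nm after 4 h with CellTiter 96 AQueous One reagent. Beforehand, M-NFS-60 cells (2000/well, CSF-1-dependent) were treated with a compound dilution series for 72 h following overnight plating at 37 °C, 5% CO2.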

[5] = test system: THP-1 human acute monocytic leukemia cell harboring NRAS G12D mutation; test: THP-1 cell proliferation assay (counter screen, CellTiter-96); format: cell-based; conditions: Cytotoxicity, THP-1 cells (counter screen), 72 hours
Summary of the method: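 Growth inhibition read as 490 nm absorbance after 4 h with CellTiter96 AQueous One reagent, following 72 h compound exposure at rising concentrations. THP-1 (NRAS G12D) cells plated at 5000 per well and left overnight at 37 °C, 5% CO2 before dosing.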

Sequence of FLT3 kinase (P36888 27-993): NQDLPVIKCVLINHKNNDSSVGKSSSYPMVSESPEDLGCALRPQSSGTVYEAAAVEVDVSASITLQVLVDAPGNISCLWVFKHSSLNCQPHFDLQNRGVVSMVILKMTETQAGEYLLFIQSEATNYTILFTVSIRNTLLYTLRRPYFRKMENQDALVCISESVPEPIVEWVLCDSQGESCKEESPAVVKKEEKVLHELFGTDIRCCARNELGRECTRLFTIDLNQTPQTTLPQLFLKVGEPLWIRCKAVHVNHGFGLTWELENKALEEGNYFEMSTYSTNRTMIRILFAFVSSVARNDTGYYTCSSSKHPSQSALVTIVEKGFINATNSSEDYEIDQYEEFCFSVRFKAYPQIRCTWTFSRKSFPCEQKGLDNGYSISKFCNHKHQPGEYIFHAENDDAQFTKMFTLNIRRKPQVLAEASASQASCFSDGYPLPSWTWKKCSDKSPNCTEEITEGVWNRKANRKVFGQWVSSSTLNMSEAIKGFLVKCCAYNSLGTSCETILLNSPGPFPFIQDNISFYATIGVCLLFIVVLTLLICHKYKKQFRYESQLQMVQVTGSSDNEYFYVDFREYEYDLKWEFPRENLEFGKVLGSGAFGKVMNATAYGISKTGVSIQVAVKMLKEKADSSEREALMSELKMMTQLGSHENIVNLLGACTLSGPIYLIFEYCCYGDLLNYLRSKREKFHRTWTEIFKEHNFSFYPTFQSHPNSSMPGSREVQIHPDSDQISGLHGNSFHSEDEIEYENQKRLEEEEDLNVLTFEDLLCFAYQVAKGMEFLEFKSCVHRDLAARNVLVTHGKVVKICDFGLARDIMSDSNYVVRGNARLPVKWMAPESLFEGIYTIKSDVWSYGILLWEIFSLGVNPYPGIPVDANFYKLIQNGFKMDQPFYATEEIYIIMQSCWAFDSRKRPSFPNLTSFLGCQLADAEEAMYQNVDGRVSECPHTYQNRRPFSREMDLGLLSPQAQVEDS

IC50 (FLT3 kinase) [µM] | IC50 (c-KIT kinase; class symbol) [µM] | IC50 (PDGFRβ kinase; bound) [µM] | IC50 (CSF-1R kinase) [µM] | IC50 (PDGFRβ kinase; class symbol) [µM] | IC50 (c-KIT kinase; bound) [µM] | Compound | IC50 [1] [µM] | inhibition at 1 µM [2] [%] | IC50 [3] [µM] | IC50 [4] [µM] | IC50 [5] [µM]
> 1 | < 0.1 | > 1 | < 0.1 |  |  | COc1cc(Nc2ccc3ncc(N4CCOCC4)nc3c2C#N)ccc1OCc1cccs1 [Example 127, 6-((3-methoxy-4-(thiophen-2-ylmethoxy)phenyl)amino)-3-morpholinoquinoxaline-5-carbonitrile] | 0.3 to 1 | > 50 | 1 to 10 | 1 to 10 | > 10
> 1 | < 0.1 |  | < 0.1 | 0.3 to 1 |  | COc1ccc(COc2ccc(Nc3ccc4ncc(N5CCOCC5)nc4c3C#N)cc2OC)cc1OC [Example 58, 6-((4-((3,4-dimethoxybenzyl)oxy)-3-methoxyphenyl)amino)-3-morpholinoquinoxaline-5-carbonitrile] | < 0.3 | > 50 | > 10 | < 0.3 | > 10
> 1 | 0.1 to 0.3 | > 1 | < 0.1 |  |  | COc1cc(Nc2ccc3ncc(N4CCOCC4)nc3c2C#N)ccc1OCc1ccc(C(F)F)nc1 [Example 111, 6-((4-((6-(difluoromethyl)pyridin-3-yl)methoxy)-3-methoxyphenyl)amino)-3-morpholinoquinoxaline-5-carbonitrile] | 0.3 to 1 | > 50 | 1 to 10 | < 0.3 | > 10
> 1 |  | > 1 | < 0.1 |  | > 1 | COc1ccc(COc2ncc(Nc3ccc4ncc(N5CCOCC5)nc4c3C#N)cc2OC)cc1 [Example 37, 6-((5-methoxy-6-((4-methoxybenzyl)oxy)pyridin-3-yl)amino)-3-morpholinoquinoxaline-5-carbonitrile] | > 10 | > 50 | > 10 | < 0.3 | > 10
> 1 | < 0.1 | > 1 | < 0.1 |  |  | COc1ccc(COc2ccc(Nc3ccc4ncc(N5CCN(C(C)C)CC5)nc4c3C#N)cc2OC)cc1 [Example 80, 3-(4-isopropylpiperazin-1-yl)-6-((3-methoxy-4-((4-methoxybenzyl)oxy)phenyl)amino)quinoxaline-5-carbonitrile] | < 0.3 | > 50 | 1 to 10 | < 0.3 | 1 to 10
> 1 | < 0.1 | > 1 | < 0.1 |  |  | COc1ccc(COc2ccc(Nc3ccc4ncc(N5CCC(COC(C)=O)CC5)nc4c3C#N)cc2OC)cc1 [Example 71, (1-(8-cyano-7-((3-methoxy-4-((4-methoxybenzyl)oxy)phenyl)amino)quinoxalin-2-yl)piperidin-4-yl)methyl acetate] | < 0.3 | > 50 | > 10 | < 0.3 | > 10
> 1 | < 0.1 |  | < 0.1 | 0.3 to 1 |  | COc1ccc(COc2ccc(Nc3ccc4ncc(N5CCN(C)CC5)nc4c3C#N)cc2OC)cc1 [Example 31, 6-((3-methoxy-4-((4-methoxybenzyl)oxy)phenyl)amino)-3-(4-methylpiperazin-1-yl)quinoxaline-5-carbonitrile] | < 0.3 | > 50 | 1 to 10 | < 0.3 | > 10
> 1 | < 0.1 | > 1 | < 0.1 |  |  | COc1cc(Nc2ccc3ncc(N4CCOCC4)nc3c2C#N)ccc1OCc1ccc(C(C)C)nc1 [Example 103, 6-((4-((6-isopropylpyridin-3-yl)methoxy)-3-methoxyphenyl)amino)-3-morpholinoquinoxaline-5-carbonitrile] | < 0.3 | > 50 | 1 to 10 | < 0.3 | > 10
> 1 |  | > 1 | < 0.1 |  | > 1 | C=C(C)c1cnc2ccc(Nc3ccc(OCc4ccc(OC)cc4)c(OC)c3)c(C#N)c2n1 [Example 108, 6-((3-methoxy-4-((4-methoxybenzyl)oxy)phenyl)amino)-3-(prop-1-en-2-yl)quinoxaline-5-carbonitrile] | > 10 | > 50 | > 10 | 1 to 10 | > 10
> 1 | < 0.1 | > 1 | < 0.1 |  |  | COc1ccc(COc2ccc(Nc3ccc4ncc(N5CCCC5)nc4c3C#N)cc2OC)cn1 [Example 79, 6-((3-methoxy-4-((6-methoxypyridin-3-yl)methoxy)phenyl)amino)-3-(pyrrolidin-1-yl)quinoxaline-5-carbonitrile] | 0.3 to 1 | > 50 | 1 to 10 | < 0.3 | > 10
> 1 | < 0.1 | > 1 | < 0.1 |  |  | COc1cc(N(C)c2ccc3ncc(N4CCOCC4)nc3c2C#N)ccc1OCc1ccc(C2CC2)nc1 [Example 130, 6-((4-((6-cyclopropylpyridin-3-yl)methoxy)-3-methoxyphenyl)(methyl)amino)-3-morpholinoquinoxaline-5-carbonitrile] | 0.3 to 1 | > 50 | 1 to 10 | < 0.3 | > 10
> 1 | < 0.1 | > 1 | < 0.1 |  |  | COc1cc(Nc2ccc3ncc(C4=CCOCC4)nc3c2C#N)ccc1OCc1ccc(C)nc1 [Example 113, 3-(3,6-dihydro-2H-pyran-4-yl)-6-((3-methoxy-4-((6-methylpyridin-3-yl)methoxy)phenyl)amino)quinoxaline-5-carbonitrile] | 0.3 to 1 | > 50 | 1 to 10 | < 0.3 | > 10
> 1 | 0.1 to 0.3 | > 1 | < 0.1 |  |  | COc1ccc(COc2ccc(Nc3ccc4ncc(N5CCN(C)CC5)nc4c3C#N)cc2OC)cn1 [Example 95, 6-((3-methoxy-4-((6-methoxypyridin-3-yl)methoxy)phenyl)amino)-3-(4-methylpiperazin-1-yl)quinoxaline-5-carbonitrile] | 0.3 to 1 | > 50 | 1 to 10 | < 0.3 | 1 to 10
> 1 | 0.1 to 0.3 | > 1 | < 0.1 |  |  | COc1ccc(COc2ccc(Nc3ccc4ncc(N5CCN(CCO)CC5)nc4c3C#N)cc2OC)cn1 [Example 75, 3-(4-(2-hydroxyethyl)piperazin-1-yl)-6-((3-methoxy-4-((6-methoxypyridin-3-yl)methoxy)phenyl)amino)quinoxaline-5-carbonitrile] | 0.3 to 1 | > 50 | > 10 | < 0.3 | > 10
